Measured values from PubChem BioAssay (NCI).
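The compound was tested at five concentrations on cells cultured in 96-well plates, with a 48-hour exposure period. At the GI50, growth is halved. The concentration for full growth arrest is given as TGI.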

Legend:
Assay in all cases: DTP human tumour cell line panel, 48 h
SNB-75 CNS = test system: SNB-75 CNS
786-0 renal = test system: 786-0 renal
UACC-62 melanoma = test system: UACC-62 melanoma
NCI-H23 lung = test system: NCI-H23 lung
SK-MEL-5 melanoma = test system: SK-MEL-5 melanoma
SF-268 CNS = test system: SF-268 CNS
CCRF-CEM leukemia = test system: CCRF-CEM leukemia
UACC-257 melanoma = test system: UACC-257 melanoma
OVCAR-3 ovarian = test system: OVCAR-3 ovarian
SK-OV-3 ovarian = test system: SK-OV-3 ovarian

Structure (SMILES)	GI50 (SNB-75 CNS)	TGI (SNB-75 CNS)	GI50 (786-0 renal)	TGI (786-0 renal)	GI50 (UACC-62 melanoma)	TGI (UACC-62 melanoma)	GI50 (NCI-H23 lung)	TGI (NCI-H23 lung)	GI50 (SK-MEL-5 melanoma)	TGI (SK-MEL-5 melanoma)	GI50 (SF-268 CNS)	TGI (SF-268 CNS)	GI50 (CCRF-CEM leukemia)	TGI (CCRF-CEM leukemia)	GI50 (UACC-257 melanoma)	TGI (UACC-257 melanoma)	GI50 (OVCAR-3 ovarian)	TGI (OVCAR-3 ovarian)	GI50 (SK-OV-3 ovarian)	TGI (SK-OV-3 ovarian)
N#Cc1ccc(Oc2nccc(-c3c(-c4ccc(F)cc4)ncn3C3CCNCC3)n2)cc1	> 16 µM	> 25 µM	> 25 µM	> 25 µM	> 25 µM	> 25 µM	> 25 µM	> 25 µM	14.1 µM	> 25 µM	24.6 µM	> 25 µM	7.79 µM	24.7 µM	> 22.7 µM	> 25 µM	> 25 µM	> 25 µM	> 25 µM	> 25 µM
O=C(N[C@H](c1ccc(Cl)c(Cl)c1)C1CNC1)c1ccc2cnccc2c1	0.405 µM	3.68 µM	1.78 µM	11.5 µM	5.39 µM	19.1 µM	5.83 µM	19.6 µM	11.1 µM	23.2 µM	2.56 µM	15.6 µM	2.74 µM	13.6 µM	5.18 µM	18.6 µM	11.5 µM	23.9 µM	3.26 µM	13.1 µM
CCC(=O)C1=C(OC(C)=O)C2Cc3c(n(C)c4ccccc34)C(C1)N2C (stereo not given)	–	> 100 µM	–	66.4 µM	–	> 100 µM	–	> 100 µM	–	97.9 µM	–	47.9 µM	–	80.9 µM	–	> 100 µM	–	> 100 µM	–	> 100 µM
Nc1nc(N)c2cc(CNc3ccc(Cl)c(Cl)c3)ccc2n1	1.14 µM	2.36 µM	0.391 µM	1.73 µM	0.468 µM	1.86 µM	0.71 µM	2.11 µM	0.519 µM	1.82 µM	0.544 µM	1.85 µM	0.395 µM	1.88 µM	0.891 µM	2.24 µM	1.1 µM	2.29 µM	1.28 µM	2.53 µM
CCCc1cc(=O)oc2c(C(=O)CC(C)C)c(O)c(CC=C(C)C)c(O)c12	10.7 µM	41.8 µM	10.5 µM	46.2 µM	1.88 µM	12.1 µM	4.05 µM	45.8 µM	2.53 µM	11 µM	11.2 µM	> 50 µM	4.97 µM	> 50 µM	5.89 µM	29.9 µM	3.53 µM	> 50 µM	13.5 µM	41.2 µM
CN(C)CC(C(=O)c1ccccc1)c1ccccc1 (stereo not given)	3.54 µM	14.4 µM	3.58 µM	10.4 µM	2.05 µM	7 µM	2.95 µM	12.7 µM	1.57 µM	3.45 µM	3.26 µM	10.8 µM	0.755 µM	10.9 µM	1.99 µM	5.81 µM	1.24 µM	2.5 µM	2.62 µM	7.77 µM
CCSC1(SCC)CCN(C=NC(C)(C)C)C1	–	> 100 µM	–	> 100 µM	–	> 100 µM	–	> 100 µM	–	> 100 µM	–	> 100 µM	–	> 100 µM	–	> 100 µM	–	> 100 µM	–	> 100 µM
CCOP(=O)(CCP(=O)(OCC)OCC)OCC.C[CH2][Sn]([Cl])([Cl])[CH2]C	26.4 µM	69.3 µM	21.7 µM	50.2 µM	34 µM	55 µM	19.9 µM	49 µM	36.4 µM	> 86.7 µM	38.8 µM	> 66.8 µM	15.5 µM	50.5 µM	28.5 µM	59.3 µM	> 84.3 µM	> 100 µM	99.3 µM	> 100 µM
COc1cc2c(cc1OC)C(CCc1ccc(Cl)cc1)N(C)CC2 (stereo not given)	11.9 µM	43.5 µM	17.4 µM	48.9 µM	20.1 µM	44.5 µM	30.1 µM	> 100 µM	14.4 µM	27.6 µM	35 µM	> 100 µM	29.1 µM	> 100 µM	27.2 µM	65.9 µM	33.3 µM	> 100 µM	32.2 µM	> 100 µM
c1cncc(CNc2ccccc2-c2nnc(Nc3ccc4c(c3)OCO4)o2)c1	0.0246 µM	> 100 µM	0.14 µM	> 90.4 µM	0.0542 µM	> 100 µM	0.0662 µM	> 100 µM	0.0449 µM	> 100 µM	0.407 µM	> 100 µM	0.0801 µM	> 100 µM	0.432 µM	60.4 µM	0.0303 µM	0.0866 µM	0.0914 µM	7.81 µM
COc1ccc(/C=C/C(=O)c2sc(N)nc2C)cc1	–	> 100 µM	–	> 100 µM	–	> 100 µM	–	> 100 µM	–	> 100 µM	–	> 100 µM	–	> 100 µM	–	> 100 µM	–	> 100 µM	–	> 100 µM
OC(c1ccccc1)(c1ccccc1)c1ccccn1	–	> 100 µM	–	> 100 µM	–	> 100 µM	–	> 100 µM	–	> 100 µM	–	> 100 µM	–	> 100 µM	–	> 100 µM	–	> 100 µM	–	> 100 µM
Nc1nnc2nc(CC(=O)/C=C/c3ccccc3)c(=O)[nH]n12	–	> 100 µM	–	> 100 µM	–	> 100 µM	–	> 100 µM	–	> 100 µM	–	> 100 µM	–	> 100 µM	–	> 100 µM	–	> 100 µM	–	> 100 µM
COc1cc(CNC(=O)/C=C/C=C/c2ccc3c(c2)OCO3)ccc1OCc1cn(-c2ccc(Cl)c(Cl)c2)nn1	1.94 µM	5.99 µM	2.03 µM	4.28 µM	1.26 µM	2.65 µM	0.588 µM	2.34 µM	1.77 µM	3.69 µM	2.3 µM	7.94 µM	1.44 µM	12.6 µM	1.8 µM	3.98 µM	1.42 µM	2.81 µM	2.54 µM	6.57 µM
